From article PMC11861906, “Structural basis for lipid-mediated activation of G protein-coupled receptor GPR55” (Nature Communications, 2025)

Target: thromboxane A2 receptor (TBXA2R) (Gα13) (Homo sapiens, UniProt P21731)
Experiment: BRET² G protein dissociation assay, TBXA2R with Gα13
Assay type: cell-based
Settings: for Mean (plotted), G protein dissociation BRET² signal: TBXA2R-G13, Fig. 5c source data
Protocol: G protein dissociation assays were performed according to the original protocols of the TRUPATH BRET² assay[47],[87] but with subtle modifications as previously described[61],[88],[89]. All reagents and cells were obtained from Thermo Fisher Scientific unless indicated otherwise. The coding sequences for the G protein biosensors[47] (Gα12-Rluc8, Gα13-Rluc8, wt Gβ3, and Gγ9-GFP), the wt GPR55, the construct used for cryo-EM (with GFP bearing a G67A mutation to disrupt fluorescence properties[48] for BRET² assays), GPR55 binding pocket mutants (G152^4.56F, G152^4.56W, N171^ECL2Q, N171^ECL2A, T176^5.33A, R253^6.62A), and the wt TBXA2R were codon-optimized for Homo sapiens, gene-synthesized, and sub-cloned into pcDNA^TM3.1(+) between NheI and HindIII restriction sites by GeneArt (Thermo Fisher Scientific). […] Freshly grown cells were washed with Dulbecco’s Balanced Salt Solution (DPBS, cat. #14200075) and detached using trypsin-ethylenediaminetetraacetic acid (trypsin-EDTA) (cat. #25300-062). Then, the cells were reconstituted to 500,000 cells per mL with fresh medium, and 1,000,000 cells were seeded into each well of a 6-well plate. After 3 h incubation at 37 °C and 5% CO2, adherent cells were transfected with 600 ng DNA (1:1:1:1 ratio of plasmid DNA for GPR55, wt Gβ3, Gγ9-GFP, and Gα12-Rluc8 or Gα13-Rluc8). Plasmid DNA was mixed with 1.5 µL Lipofectamine^TM 2000 (cat. #11668027) in Opti-MEM^TM medium (cat. #31985062) and incubated for 20 min. Then, the mixture was added to each well of the 6-well plate following 24 h incubation at 37 °C and 5% CO2. Transfected cells were washed with DPBS, detached using EDTA (Versene, cat. #15040066), and reconstituted into fresh medium at 500,000 cells mL^−1. From this suspension, 50,000 cells were seeded into each well of a white-bottom 96-well plate (Nunc^TM MicroWell^TM 96 wells, cat. #136101) following overnight incubation at 37 °C and 5% CO2. Then, the adherent cells were washed with assay medium [Hank’s balanced salt solution (HBSS, cat. #14065056) plus 20 mM HEPES pH 7.4 (cat. #15630056)] and finally reconstituted into 50 µL of the same medium. […] Methoxy e-Coelenterazine was used as luciferase substrate (Prolume Purple, NanoLight Technology, cat. #369), reconstituted at 1 mM in methanol and diluted to 37.5 µM with assay buffer (7.5 µM final assay concentration). The assay was started by the addition of 20 µL luciferase substrate to each well of the assay plate using a Multidrop^TM Combi reagent dispenser (Thermo Fisher Scientific), followed by 5 min incubation at room temperature. Then, 30 µL of agonist dilutions or DMSO control was added (final DMSO concentration 1.5%), followed by an additional 5 min incubation at room temperature.

thromboxane A2 receptor (TBXA2R) (Gα13), sequence (P21731 whole entry, species assumed): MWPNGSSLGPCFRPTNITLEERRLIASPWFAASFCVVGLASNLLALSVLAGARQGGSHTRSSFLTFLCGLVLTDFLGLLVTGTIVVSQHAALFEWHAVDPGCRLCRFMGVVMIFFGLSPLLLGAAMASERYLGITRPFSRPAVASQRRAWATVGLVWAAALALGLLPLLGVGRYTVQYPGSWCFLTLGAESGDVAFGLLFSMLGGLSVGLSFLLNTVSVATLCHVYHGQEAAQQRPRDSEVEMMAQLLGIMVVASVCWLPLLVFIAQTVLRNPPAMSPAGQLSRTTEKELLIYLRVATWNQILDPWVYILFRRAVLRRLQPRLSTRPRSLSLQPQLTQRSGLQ
thromboxane A2 receptor (TBXA2R) (Gα13), sequence (Q14344 whole entry partner, species assumed): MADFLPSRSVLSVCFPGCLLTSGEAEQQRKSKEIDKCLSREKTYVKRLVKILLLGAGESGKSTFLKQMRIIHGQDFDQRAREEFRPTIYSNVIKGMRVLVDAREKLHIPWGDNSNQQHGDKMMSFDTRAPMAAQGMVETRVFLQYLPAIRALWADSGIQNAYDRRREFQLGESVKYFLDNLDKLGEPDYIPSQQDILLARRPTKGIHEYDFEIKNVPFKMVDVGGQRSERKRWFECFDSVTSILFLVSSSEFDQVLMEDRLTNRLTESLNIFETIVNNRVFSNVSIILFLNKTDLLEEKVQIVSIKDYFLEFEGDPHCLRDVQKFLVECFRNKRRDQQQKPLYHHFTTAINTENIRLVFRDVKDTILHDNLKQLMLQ
thromboxane A2 receptor (TBXA2R) (Gα13), sequence (P16520 whole entry partner, species assumed): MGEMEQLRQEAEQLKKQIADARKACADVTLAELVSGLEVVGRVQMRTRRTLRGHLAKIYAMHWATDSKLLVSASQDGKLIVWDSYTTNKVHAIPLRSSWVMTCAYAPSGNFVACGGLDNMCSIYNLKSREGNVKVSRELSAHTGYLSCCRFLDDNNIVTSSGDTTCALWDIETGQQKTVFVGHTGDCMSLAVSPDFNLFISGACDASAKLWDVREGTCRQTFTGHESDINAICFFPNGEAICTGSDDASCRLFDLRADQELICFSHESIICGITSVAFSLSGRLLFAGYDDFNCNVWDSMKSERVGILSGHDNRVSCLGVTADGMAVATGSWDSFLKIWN
thromboxane A2 receptor (TBXA2R) (Gα13), sequence (O14610 1-66 partner limits assumed, species assumed): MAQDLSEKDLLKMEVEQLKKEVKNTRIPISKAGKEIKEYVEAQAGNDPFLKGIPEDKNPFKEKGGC

Cc1cccc(N2CCN(C(=O)c3cc(S(=O)(=O)N(C)C)ccc3N3CCCC3)CC2)c1C [ML184, 3-[[4-(2,3-dimethylphenyl)-1-piperazinyl]carbonyl]-N,N-dimethyl-4-(1-pyrrolidinyl)benzenesulfonamide]
Mean (plotted), G protein dissociation BRET² signal (concentration 300 pM): -0.002664 | Mean (plotted), G protein dissociation BRET² signal (concentration 1e-9 M): -0.001942 | Mean (plotted), G protein dissociation BRET² signal (concentration 3e-9 M): -0.0001851 | Mean (plotted), G protein dissociation BRET² signal (concentration 1e-8 M): 0.008857 | Mean (plotted), G protein dissociation BRET² signal (concentration 3e-8 M): 0.0122 | Mean (plotted), G protein dissociation BRET² signal (concentration 1e-7 M): 0.01041 | Mean (plotted), G protein dissociation BRET² signal (concentration 3e-7 M): 0.01174 | Mean (plotted), G protein dissociation BRET² signal (concentration 1e-6 M): 0.01712 | Mean (plotted), G protein dissociation BRET² signal (concentration 3e-6 M): 0.01801 | Mean (plotted), G protein dissociation BRET² signal (concentration 1e-5 M): 0.01748 | Mean (plotted), G protein dissociation BRET² signal (concentration 3e-5 M): 0.01231

CCCCC[C@H](O)/C=C/[C@@H]1[C@@H](C/C=C\CCCC(=O)O)[C@H]2CO[C@@H]1C2 [U-46619]
Efficacy ± SEM (%) (TBXA2, Gα13): 100 ± 2% | pEC50 ± SEM (TBXA2, Gα13): 9.03 ± 0.11 | EC50 (TBXA2R via Gα13, read-out: potency (EC50)): 0.93 nM | Mean (plotted), G protein dissociation BRET² signal (concentration 10 pM): 0.004083 | Mean (plotted), G protein dissociation BRET² signal (concentration 30 pM): 0.00585 | Mean (plotted), G protein dissociation BRET² signal (concentration 300 pM): -0.03967 | Mean (plotted), G protein dissociation BRET² signal (concentration 1e-9 M): -0.07222 | Mean (plotted), G protein dissociation BRET² signal (concentration 3e-9 M): -0.103 | Mean (plotted), G protein dissociation BRET² signal (concentration 3e-8 M): -0.1326 | Mean (plotted), G protein dissociation BRET² signal (concentration 3e-7 M): -0.1394 | Mean (plotted), G protein dissociation BRET² signal (concentration 1e-6 M): -0.1409
